One assay concerns the target T1, F508del in NIH 3T3 cells (Homo sapiens, UniProt P13569, DEL508-508).
T1 construct: expressed in transfected cells
The assay is described as follows: 3T3 assay: membrane potential optical assay for F508del correction. It counts as cell-based, mouse. The note with it: for EC50 / 3T3 Max Activity (%): F508del NIH 3T3 cells; for EC50: compound incubation 18-24 hours at 37° C., forskolin activation, read-out: 3T3 EC50; for Emax: NIH3T3, F508del NIH 3T3 cells, read-out: 3T3 Max Activity (%); for Emax / 3T3 Max Activity (%): efficacy compared to lumacaftor in combination with acutely added 300 nM Ivacaftor. In outline: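 NIH3T3 mouse fibroblasts stably expressing F508del incubated with corrector compounds at a range of concentrations for 16-24 h at 37 °C, then loaded with voltage-sensing redistribution dye. Single addition of forskolin with Cl− gradient (chloride-free gluconate bath vs. NaCl bath, pH 7.4); membrane potential change read by fluorescence on FLIPR.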

In assay [1] the target is CFTR-mediated chloride transport in human intestinal epithelial enteroid cells (Homo sapiens, UniProt P13569). The assay is described as follows: Membrane potential dye, Enteroid Assay A. The note with it: for Ent. A Max Activity (%): % of chloride transport of triple combination control (3 μM N-[(6-amino-2-pyridyl)sulfonyl]-6-(3-fluoro-5-isobutoxy-phenyl)-2-[(4S)-2,2,4-trimethylpyrrolidin-1-yl]pyridine-3-carboxamide, 3 μM tezacaftor, 300 nM acute ivacaftor); for EC50: enteroid cells, 18-24 hours incubation, acute 10 μM forskolin and 300 nM ivacaftor, read-out: Ent. A EC50. The class given is cell-based. In outline:
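Enteroids seeded at 5000 cells/well were exposed to test compound in IEMM for 18-24 h at 37 °C, then loaded with methyl oxonol membrane potential dye. Chloride transport was triggered in chloride-free buffer with 10 μM forskolin, 100 μM IBMX and 300 nM Compound III, read by fluorescence for 15 min and expressed as % of a triple-combination control.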

Data on 13 compounds can be found in patent US20230416275A1, “MODULATORS OF CYSTIC FIBROSIS TRANSMEMBRANE CONDUCTANCE REGULATOR” (VERTEX PHARMACEUTICALS INCORPORATED, priority 2020, published 2023).

CFTR-mediated chloride transport in human intestinal epithelial enteroid cells, sequence (P13569 with tags, fused parts or gaps DEL508-508): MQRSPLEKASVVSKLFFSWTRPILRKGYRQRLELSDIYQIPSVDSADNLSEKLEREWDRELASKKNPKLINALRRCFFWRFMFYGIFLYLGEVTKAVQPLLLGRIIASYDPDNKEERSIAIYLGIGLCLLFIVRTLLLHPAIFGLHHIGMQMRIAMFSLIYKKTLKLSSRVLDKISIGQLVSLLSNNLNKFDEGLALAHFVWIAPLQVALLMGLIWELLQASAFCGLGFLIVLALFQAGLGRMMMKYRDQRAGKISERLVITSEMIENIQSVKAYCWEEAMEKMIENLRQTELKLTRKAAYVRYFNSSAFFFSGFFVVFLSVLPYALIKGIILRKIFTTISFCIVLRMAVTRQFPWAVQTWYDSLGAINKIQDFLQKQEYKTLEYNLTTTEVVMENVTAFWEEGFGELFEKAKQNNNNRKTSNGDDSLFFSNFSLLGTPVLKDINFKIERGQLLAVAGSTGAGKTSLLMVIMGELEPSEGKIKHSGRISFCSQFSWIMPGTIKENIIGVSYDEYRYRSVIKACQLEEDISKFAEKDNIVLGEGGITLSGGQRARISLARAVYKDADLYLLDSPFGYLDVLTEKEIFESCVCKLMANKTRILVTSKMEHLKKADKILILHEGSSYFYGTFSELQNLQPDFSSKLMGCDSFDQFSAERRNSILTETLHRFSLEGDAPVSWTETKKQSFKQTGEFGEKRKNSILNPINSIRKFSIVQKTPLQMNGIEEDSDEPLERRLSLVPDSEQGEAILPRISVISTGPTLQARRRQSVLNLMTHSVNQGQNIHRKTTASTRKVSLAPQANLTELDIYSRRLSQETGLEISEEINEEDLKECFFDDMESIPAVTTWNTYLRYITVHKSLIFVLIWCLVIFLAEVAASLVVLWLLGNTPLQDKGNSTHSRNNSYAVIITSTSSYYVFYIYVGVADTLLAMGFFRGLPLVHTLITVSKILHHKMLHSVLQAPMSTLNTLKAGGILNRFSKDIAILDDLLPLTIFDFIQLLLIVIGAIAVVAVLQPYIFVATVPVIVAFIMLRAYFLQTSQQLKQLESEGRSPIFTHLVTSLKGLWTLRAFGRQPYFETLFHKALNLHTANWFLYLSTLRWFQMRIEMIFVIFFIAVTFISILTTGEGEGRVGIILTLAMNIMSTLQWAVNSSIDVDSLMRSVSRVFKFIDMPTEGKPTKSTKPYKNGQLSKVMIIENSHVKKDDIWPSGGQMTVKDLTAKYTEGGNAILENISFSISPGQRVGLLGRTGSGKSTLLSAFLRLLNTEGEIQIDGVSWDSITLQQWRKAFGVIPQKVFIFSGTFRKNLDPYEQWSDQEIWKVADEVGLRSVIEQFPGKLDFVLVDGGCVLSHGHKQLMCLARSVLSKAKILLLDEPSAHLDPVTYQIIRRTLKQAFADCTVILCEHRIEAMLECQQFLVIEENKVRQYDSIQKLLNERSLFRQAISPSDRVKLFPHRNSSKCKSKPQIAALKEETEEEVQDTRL
T1 sequence (P13569 with tags, fused parts or gaps DEL508-508): as above

Usually EC50 stands for the midpoint of the concentration-response curve. Consider `Cc1cccc(C)c1-c1cc2nc(n1)NS(=O)(=O)c1cccc(c1)NC(=O)[C@@H]1C[C@@H](CN(CC3CC3)C1)O2` [Compound 30], for which, on F508del in NIH 3T3 cells, the 50% effective concentration (EC50) was < 1 µM and the Emax was > 60%. Besides, in assay [1], the “Ent. A Max Activity (%)” value is “++ (++ is 30-60%)” and the EC50 is 1 to 3 µM.
For `Cc1cccc(C)c1-c1cc2nc(n1)NS(=O)(=O)c1cccc(c1)NC(=O)[C@@H]1C[C@@H](CN(C(=O)OCCF)C1)O2` [Compound 33], in that order: < 1 µM, > 60%, “++ (++ is 30-60%)” and 1 to 3 µM.
As to `Cc1cccc(C)c1-c1cc2nc(n1)NS(=O)(=O)c1cccc(c1)NC(=O)[C@H]1C[C@@H](CN(C(=O)NC(C)(C)C)C1)O2` [Compound 42], at F508del in NIH 3T3 cells, the EC50 lay within 3 to 30 µM and the Emax is > 60%. The “Ent. A Max Activity (%)” value in assay [1] is “+ (+ is <30%)”.
For `Cc1cccc(C)c1-c1cc2nc(n1)NS(=O)(=O)c1cccc(c1)NC(=O)[C@H]1C[C@H](CN(C(=O)NC(C)(C)C)C1)O2` [Compound 43], in that order: 3 to 30 µM, > 60% and “+ (+ is <30%)”.
`Cc1cccc(C)c1-c1cc2nc(n1)NS(=O)(=O)c1cccc(c1)NC(=O)[C@@H]1C[C@@H](CN(C(=O)NC(C)(C)C)C1)O2` [Compound 44]: at F508del in NIH 3T3 cells, the EC50 is < 1 µM and the Emax is > 60%. Moreover, in assay [1], the “Ent. A Max Activity (%)” value is “+++ (+++ is >60%)” and the concentration giving a half-maximal response (EC50) is 3 to 30 µM.
Turning to `Cc1cccc(C)c1-c1cc2nc(n1)NS(=O)(=O)c1cccc(c1)NC(=O)[C@@H]1C[C@@H](CN(C(=O)CC(C)(C)C)C1)O2` [Compound 45], on F508del in NIH 3T3 cells, the 50% effective concentration (EC50) is < 1 µM and the Emax is > 60%. For the same compound, in assay [1], the “Ent. A Max Activity (%)” value is reported as “+++ (+++ is >60%)” and the EC50 lay in the range of 1 to 3 µM.
Regarding `Cc1cccc(C)c1-c1cc2nc(n1)NS(=O)(=O)c1cccc(c1)NC(=O)[C@@H]1C[C@@H](CN(C(=O)C(C)(C)C)C1)O2` [Compound 46], on F508del in NIH 3T3 cells, the concentration for a half-maximal effect (EC50) was < 1 µM and the Emax was > 60%. Besides, in assay [1], the “Ent. A Max Activity (%)” value is recorded as “+++ (+++ is >60%)” and the EC50 is 1 to 3 µM.
As to `Cc1cccc(C)c1-c1cc2nc(n1)NS(=O)(=O)c1cccc(c1)NC(=O)[C@H]1CNC[C@@H](C1)O2` [Compound 47], the Emax at F508del in NIH 3T3 cells lay in the range of 30 to 60%. The “Ent. A Max Activity (%)” value in assay [1] is recorded as “+ (+ is <30%)”.
For the compound `Cc1cccc(C)c1-c1cc2nc(n1)NS(=O)(=O)c1cccc(c1)NC(=O)[C@@H]1CNC[C@H](C1)O2` [Compound 48], on F508del in NIH 3T3 cells, the EC50 was 1 to 3 µM and the Emax was > 60%. The “Ent. A Max Activity (%)” value in assay [1] is “++ (++ is 30-60%)”.
For `Cc1cccc(C)c1-c1cc2nc(n1)NS(=O)(=O)c1cccc(c1)NC(=O)[C@H]1CNC[C@H](C1)O2` [Compound 49], in that order: 1 to 3 µM, > 60% and “+ (+ is <30%)”.
Turning to `Cc1cccc(C)c1-c1cc2nc(n1)NS(=O)(=O)c1cccc(c1)NC(=O)[C@@H]1CNC[C@@H](C1)O2` [Compound 50], the Emax at F508del in NIH 3T3 cells was < 30%. Moreover, the “Ent. A Max Activity (%)” value in assay [1] is “+ (+ is <30%)”.
`Cc1cccc(C)c1-c1cc2nc(n1)NS(=O)(=O)c1cccc(c1)NC(=O)C1CNCC(C1)O2` (stereo not shown) [Compound 51]: on F508del in NIH 3T3 cells, the concentration for a half-maximal effect (EC50) fell in the range of 3 to 30 µM and the “3T3 Max Activity (%)” value is “+++ (+++ is >60%)”. In assay [1], the “Ent. A Max Activity (%)” value is “++ (++ is 30-60%)” and the EC50 was in the range of 3 to 30 µM.
With `Cc1cccc(C)c1-c1cc2nc(n1)NS(=O)(=O)c1cccc(c1)NC(=O)C1CNCC(C1)O2` (stereo not shown) [Compound 52], the “3T3 Max Activity (%)” value on F508del in NIH 3T3 cells was “+ (+ is <30%)”. Also, in assay [1], the “Ent. A Max Activity (%)” value is “+ (+ is <30%)” and the 50% effective concentration (EC50) fell in the range of 3 to 30 µM.
